By IC50 is commonly meant the concentration needed to halve the response being measured.

Where two headings read alike, the source gives them in different places.

The test system of this experiment is CsgA gene expression (csgBAC promoter-GFP reporter) in E. coli UTI89. Briefly: In vitro live cell fluorescent reporter assay of CsgA transcription (Reporter Assay). Format: cell-based. The procedure, abridged:
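Compounds at 0.14–100 μM (1% DMSO final) incubated 20 h at 27 °C in YESCA broth with UTI89 carrying a single-copy GFP reporter under the csgBAC intergenic promoter region, inoculum OD600 0.003. Fluorescence normalized to vehicle wells gave IC50 and 50%-of-vehicle concentration; OD600 reduction >10% flagged growth impact.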
On the technique in general: In a reporter assay the amount or activity of a reporter protein is the signal.

Setting [1] is: Escherichia coli, read-out: Reporter Assay Abs IC50 (μM), median Abs IC50 in the CsgA reporter assay, N/A = maximum expression reduction is <50% of control.
Where [2] appears, read: Escherichia coli, read-out: Reporter Assay Abs IC50, activity range, class symbol.
Setting [3] is: Escherichia coli, read-out: Reporter Assay Abs IC50 (activity range), median Abs IC50 in the CsgA reporter assay, class symbol.

Consider `CCc1c(Cc2cccc3ccccc23)c(-c2cccc(C(F)(F)F)c2)c2n(c1=O)C(C(=O)O)CN2Cc1ccccc1` (stereo not drawn) [Compound 140, 1-benzyl-6-ethyl-7-(naphthalen-1-ylmethyl)-5-oxo-8-(3-(trifluoromethyl)phenyl)-1,2,3,5-tetrahydroimidazo[1,2-a]pyridine-3-carboxylic acid], for which the IC50 by setting is: under setting [1], 1 µM; under setting [2], below 1.3 µM.
Take `O=C(O)c1c(-c2ccccc2)sc2c(-c3cccc(C(F)(F)F)c3)c(Cc3cccc4ccccc34)cc(=O)n12` [Compound 051, 7-(naphthalen-1-ylmethyl)-5-oxo-2-phenyl-8-(3-(trifluoromethyl)phenyl)-5H-thiazolo[3,2-a]pyridine-3-carboxylic acid]: the IC50 reads like this: under setting [3], below 1.3 µM; under setting [1], 1 µM.
For the compound `CCCN1CC(C(=O)O)n2c(c(-c3cccc(C(F)(F)F)c3)c(Cc3cccc4ccccc34)cc2=O)S1(=O)=O` (single isomer, unassigned) [Compound 016b, 8-(naphthalen-1-ylmethyl)-6-oxo-2-propyl-9-(3-(trifluoromethyl)phenyl)-3,4-dihydro-2H,6H-pyrido[1,2-e][1,2,5]thiadiazine-4-carboxylic acid 1,1-dioxide], the IC50 is 4.6 to 10 µM (read-out: Reporter Assay Abs IC50 (activity range), median Abs IC50 in the CsgA reporter assay, class symbol) and 6.6 µM (read-out: Reporter Assay Abs IC50, median Abs IC50 in the CsgA reporter assay, N/A = maximum expression reduction is <50% of control).
In the case of `O=C(O)C1CN(CC2CCOCC2)c2c(-c3cccc(C(F)(F)F)c3)c(Cc3cccc4ccccc34)c(Cl)c(=O)n21` (stereo not drawn) [Compound 182, 6-chloro-7-(naphthalen-1-ylmethyl)-5-oxo-1-((tetrahydro-2H-pyran-4-yl)methyl)-8-(3-(trifluoromethyl)phenyl)-1,2,3,5-tetrahydroimidazo[1,2-a]pyridine-3-carboxylic acid], the IC50 under setting [1] was determined as 2.5 µM and the IC50 under setting [2] lay within 1.3 to 4.5 µM.
Regarding `Cc1c(Cc2cccc3ccccc23)c(-c2cccc(C(F)(F)F)c2)c2n(c1=O)C(C(=O)O)CN(C)S2(=O)=O` (stereo not drawn) [Compound 068, 2,7-dimethyl-8-(naphthalen-1-ylmethyl)-6-oxo-9-(3-(trifluoromethyl)phenyl)-3,4-dihydro-2H,6H-pyrido[1,2-e][1,2,5]thiadiazine-4-carboxylic acid 1,1-dioxide], the IC50 was above 10 µM under setting [3] and 11.1 µM under setting [1].
On the same counts, the results for `CNC(=O)C1CN(C)S(=O)(=O)c2c(-c3cccc(C(F)(F)F)c3)c(Cc3cccc4ccccc34)cc(=O)n21` (stereo not drawn) [Compound 031, N,2-dimethyl-8-(naphthalen-1-ylmethyl)-6-oxo-9-(3-(trifluoromethyl)phenyl)-3,4-dihydro-2H,6H-pyrido[1,2-e][1,2,5]thiadiazine-4-carboxamide 1,1-dioxide] are 1.3 to 4.5 µM and 4.2 µM.

The values are drawn from patent US20230131899A1, “INHIBITORS OF MICROBIALLY INDUCED AMYLOID” (Axial Therapeutics, Inc., priority 2020, published 2023).
